According to patent US4562287A, “2-(4-Biphenylyl)-4-hexenoic acid and derivatives thereof having anti-inflammatory activity” (priority 1983, dated 1985):
Counter-ions that a name gives are not always drawn.

Columns and labels:
[1] = tested on: Dextrose edema; assay: Edema induced by different substances: dextrose (Table 3); type: in vivo
Text: (§1) |Edema induced by different substances.

[2] = tested on: Yeast edema; assay: Edema induced by different substances: yeast (Table 3); type: in vivo
Text: |Edema induced by different substances. | % edema inhibition

[3] = tested on: Carragenine edema; assay: Edema induced by different substances: carragenine (Table 3); type: in vivo
Text: as §1

[4] = tested on: Kaolin edema; assay: Edema induced by different substances: kaolin (Table 3); type: in vivo
Text: as §1

[5] = tested on: Serotonin edema; assay: Edema induced by different substances: serotonin (Table 3); type: in vivo
Text: as §1

[6] = tested on: Carragenine induced edema; assay: Carragenine induced edema, first test (Table 2); type: in vivo
Text: |ANTI-INFLAMMATORY ACTIVITY. |Carragenine induced edema, first test.

[7] = in vivo; details: po, rat, p.o., read-out: DL50 (the source's name)
[8] = tested on: Carragenine induced edema; assay: Activity on carragenine induced edema (Table 9); type: in vivo
Text: |Activity on carragenine induced edema.

[9] = tested on: Carragenine induced edema; assay: Anti-inflammatory activity on carragenine induced edema (Table 11); type: in vivo; details: for % inhibition: 50 mg/Kg p.o.
[10] = tested on: Cotton-pellets induced granuloma; assay: Cotton-pellets induced granuloma; type: in vivo; details: 200 mg/Kg p.o.
Text: | Cotton-pellets induced granuloma.

[11] = tested on: SH Groups in serum; assay: SH groups in serum (Table 8); type: in vivo; details: arthritis checks 70, 77
[12] = tested on: Freund's adjuvant induced arthritis; assay: Freund's adjuvant induced arthritis, edema inhibition
[13] = tested on: erytrocytes sedimetation rate (ESR); assay: Erytrocytes sedimetation rate (ESR) (Table 8); type: in vivo; parameters: unit not given here; details: arthritis checks 41, 56
[14] = tested on: Joint's diameter; assay: Joint's diameter in arthritis (Table 7); type: in vivo; parameters: unit not given here
[15] = tested on: capillary permeability (Dextran); assay: Effect on the capillary permeability, dextran; type: in vivo; details: 200 mg/Kg p.o., checks 14.83, 200 mg/kg
Text: (§2) |Effect on the capillary permeability

[16] = tested on: capillary permeability (Serotonin); details: 200 mg/Kg p.o., checks 18.16
[17] = tested on: capillary permeability (Histamine); assay: Effect on the capillary permeability, histamine; type: in vivo; details: 200 mg/Kg p.o., checks 21.33, 200 mg/kg
Text: as §2

[18] = tested on: ulcerogenic effect; assay: Ulcerogenic effect; type: in vivo; details: dose 50 mg
[19] = 20 mg/Kg p.o., 1 week, arthritis checks 0.48, 0.38
[20] = 20 mg/Kg p.o., 2 weeks, arthritis checks 0.71, 0.75
[21] = 20 mg/Kg p.o., 3 weeks, arthritis checks 0.81, 0.79
[22] = 20 mg/Kg p.o., 4 weeks, arthritis checks 0.85, 0.89
[23] = 40 mg/Kg p.o., 1 week, arthritis checks 0.48, 0.38
[24] = 40 mg/Kg p.o., 2 weeks, arthritis checks 0.71, 0.75
[25] = 40 mg/Kg p.o., 3 weeks, arthritis checks 0.81, 0.79
[26] = 40 mg/Kg p.o., 4 weeks, arthritis checks 0.85, 0.89

## CCCCC1C(=O)N(c2ccccc2)N(c2ccccc2)C1=O [PHENYL-BUTAZONE, phenylbutazone, reference compound]
[1]; 50 mg/Kg p.o.
  % edema inhibition: 0%
[1]; 100 mg/Kg p.o.
  % edema inhibition: 0%
[1]; 200 mg/Kg p.o.
  % edema inhibition: 18%
[2]; 50 mg/Kg p.o.
  % edema inhibition: 7%
[2]; 100 mg/Kg p.o.
  % edema inhibition: 23%
[2]; 200 mg/Kg p.o.
  % edema inhibition: 18%
[3]; 50 mg/Kg p.o.
  % edema inhibition: 13%
[3]; 100 mg/Kg p.o.
  % edema inhibition: 32%
[3]; 200 mg/Kg p.o.
  % edema inhibition: 61%
[4]; 50 mg/Kg p.o.
  % edema inhibition: 41%
[4]; 100 mg/Kg p.o.
  % edema inhibition: 40%
[4]; 200 mg/Kg p.o.
  % edema inhibition: 53%
[5]; 50 mg/Kg p.o.
  % edema inhibition: 24%
[5]; 100 mg/Kg p.o.
  % edema inhibition: 12%
[5]; 200 mg/Kg p.o.
  % edema inhibition: 25%
[6]; 75 mg/Kg p.o.
  % inhibition: 43%
[6]; 150 mg/Kg p.o.
  % inhibition: 46%

## CC=CCC(C(=O)O)c1ccc(-c2ccc(Cl)cc2)cc1 (racemic) [SCR 158, 2-[4-biphenylyl-(4' chloro)]4-hexenoic acid]
[7]
  LD50: 940 mg/kg
[8]; 56 mg/Kg p.o.
  Inhibition %: 0%
[8]; 85 mg/Kg p.o.
  Inhibition %: 16%
[8]; 127 mg/Kg p.o.
  Inhibition %: 14%

## CCCCC1C(=O)N(c2ccccc2)N(c2ccc(O)cc2)C1=O (centres unmarked) [Oxyphenbutazone, reference compound]
[9]
  % inhibition: 41%
[10]
  % inhibition: 24%

## CC(C)Cc1ccc(C(C)C(=O)O)cc1 (centres unmarked) [Ibuprofen]
[11]; 20 mg/Kg p.o.
  SH groups diminution in %: 78%
[11]; 40 mg/Kg p.o.
  SH groups diminution in %: 73%
[12]; 20 mg/Kg p.o., 2 days
  Edema inhibition %: 34%
[12]; 20 mg/Kg p.o., 4 days
  Edema inhibition %: 29%
[12]; 20 mg/Kg p.o., 8 days
  Edema inhibition %: 19%
[12]; 20 mg/Kg p.o., 12 days
  Edema inhibition %: 24%
[12]; 20 mg/Kg p.o., 16 days
  Edema inhibition %: 14%
[12]; 20 mg/Kg p.o., 24 days
  Edema inhibition %: 4%
[12]; 40 mg/Kg p.o., 2 days
  Edema inhibition %: 32%
[12]; 40 mg/Kg p.o., 4 days
  Edema inhibition %: 17%
[12]; 40 mg/Kg p.o., 8 days
  Edema inhibition %: 26%
[12]; 40 mg/Kg p.o., 12 days
  Edema inhibition %: 19%
[12]; 40 mg/Kg p.o., 16 days
  Edema inhibition %: 27%
[12]; 40 mg/Kg p.o., 20 days
  Edema inhibition %: 19%
[12]; 40 mg/Kg p.o., 24 days
  Edema inhibition %: 9%
[6]; 12.5 mg/Kg p.o.
  % inhibition: 27%
[6]; 25 mg/Kg p.o.
  % inhibition: 33%
[6]; 50 mg/Kg p.o.
  % inhibition: 47%
[6]; 100 mg/Kg p.o.
  % inhibition: 54%
[9]
  % inhibition: 40%
[13]; 20 mg/Kg p.o.
  E.S.R.: 58
[13]; 40 mg/Kg p.o.
  E.S.R.: 30
[14]; [19]
  Joint's diameter: 0.31
[14]; [20]
  Joint's diameter: 0.53
[14]; [21]
  Joint's diameter: 0.65
[14]; [22]
  Joint's diameter: 0.81
[14]; [23]
  Joint's diameter: 0.35
[14]; [24]
  Joint's diameter: 0.60
[14]; [25]
  Joint's diameter: 0.75
[14]; [26]
  Joint's diameter: 0.80

## CC=CCC(C(=O)O)c1ccc(-c2ccccc2)cc1 (single isomer, unassigned; (-)) [SCR 156, (-) 2-(4-biphenylyl)-4-hexenoic acid]
[1]; 50 mg/Kg p.o., 50 mg/kg
  % edema inhibition: 14%
[1]; 100 mg/Kg p.o., 100 mg/kg
  % edema inhibition: 5%
[1]; 200 mg/Kg p.o., 200 mg/kg
  % edema inhibition: 12%
[2]; 50 mg/Kg p.o.
  % edema inhibition: 13%
[2]; 100 mg/Kg p.o., 100 mg/kg
  % edema inhibition: 5%
[2]; 200 mg/Kg p.o., 200 mg/kg
  % edema inhibition: 7%
[3]; 50 mg/Kg p.o., 50 mg/kg
  % edema inhibition: 9%
[3]; 100 mg/Kg p.o., 100 mg/kg
  % edema inhibition: 31%
[3]; 200 mg/Kg p.o., 200 mg/kg
  % edema inhibition: 23%
[4]; 50 mg/Kg p.o., 50 mg/kg
  % edema inhibition: 32%
[4]; 100 mg/Kg p.o., 100 mg/kg
  % edema inhibition: 26%
[4]; 200 mg/Kg p.o., 200 mg/kg
  % edema inhibition: 28%
[5]; 50 mg/Kg p.o., 50 mg/kg
  % edema inhibition: 0%
[5]; 100 mg/Kg p.o., 100 mg/kg
  % edema inhibition: 13%
[5]; 200 mg/Kg p.o., 200 mg/kg
  % edema inhibition: 0%
[15]
  Effect on the capillary permeability, .0. m.micron: 13.58 m.micron
[16]
  Effect on the capillary permeability, .0. m.micron: 16.43 m.micron
[17]
  Effect on the capillary permeability, .0. m.micron: 21.00 m.micron
[10]
  % inhibition: 11%

## CC(=O)Oc1ccccc1C(=O)O [Acetylsalicylic acid, reference compound]
[9]
  % inhibition: 23%

## CC=CCC(C(=O)O)c1ccc(-c2ccccc2)cc1 (single isomer, unassigned) [SCR 153, Triethanolamine salt of dextrogyre form]
[11]; 20 mg/Kg p.o.
  SH groups diminution in %: 79%
[11]; 40 mg/Kg p.o.
  SH groups diminution in %: 48%
[18]
  ulcerogenic effect: it is doubtful that above dose (50 mg) of SCR 153 could have any ulcerogenic effect
[12]; 20 mg/Kg p.o., 2 days
  Edema inhibition %: 40%
[12]; 20 mg/Kg p.o., 4 days
  Edema inhibition %: 24%
[12]; 20 mg/Kg p.o., 8 days
  Edema inhibition %: 52%
[12]; 20 mg/Kg p.o., 12 days
  Edema inhibition %: 49%
[12]; 20 mg/Kg p.o., 16 days
  Edema inhibition %: 30%
[12]; 20 mg/Kg p.o., 20 days
  Edema inhibition %: 22%
[12]; 20 mg/Kg p.o., 24 days
  Edema inhibition %: 10%
[12]; 40 mg/Kg p.o., 2 days
  Edema inhibition %: 60%
[12]; 40 mg/Kg p.o., 4 days
  Edema inhibition %: 40%
[12]; 40 mg/Kg p.o., 8 days
  Edema inhibition %: 56%
[12]; 40 mg/Kg p.o., 12 days
  Edema inhibition %: 61%
[12]; 40 mg/Kg p.o., 16 days
  Edema inhibition %: 59%
[12]; 40 mg/Kg p.o., 20 days
  Edema inhibition %: 56%
[12]; 40 mg/Kg p.o., 24 days
  Edema inhibition %: 55%
[6]; 12.5 mg/Kg p.o.
  % inhibition: 24%
[6]; 25 mg/Kg p.o.
  % inhibition: 29%
[6]; 50 mg/Kg p.o.
  % inhibition: 45%
[6]; 100 mg/Kg p.o.
  % inhibition: 53%
[9]; 50 mg SCR 153 vs 5 mg indomethacin
  anti-inflammatory effect compared with 5 mg of indomethacin: near equal to the one obtained with 5 mg of indomethacin
[9]
  % inhibition: 37%
[13]; 20 mg/Kg p.o.
  E.S.R.: 59
[13]; 40 mg/Kg p.o.
  E.S.R.: 32
[14]; [19]
  Joint's diameter: 0.46
[14]; [20]
  Joint's diameter: 0.61
[14]; [21]
  Joint's diameter: 0.62
[14]; [22]
  Joint's diameter: 0.73
[14]; [23]
  Joint's diameter: 0.24
[14]; [24]
  Joint's diameter: 0.39
[14]; [25]
  Joint's diameter: 0.44
[14]; [26]
  Joint's diameter: 0.52

## CC=CCC(C(=O)O)c1ccc(-c2ccccc2)cc1 (single isomer, unassigned; (+)) [SCR 152, (+) 2-(4-biphenylyl)-4-hexenoic acid]
[1]; 50 mg/Kg p.o., 50 mg/kg
  % edema inhibition: 12%
[1]; 100 mg/Kg p.o., 100 mg/kg
  % edema inhibition: 39%
[1]; 200 mg/Kg p.o., 200 mg/kg
  % edema inhibition: 45%
[18]
  ulcerogenic effect: exhibits none ulcerogenic effect
[2]; 50 mg/Kg p.o.
  % edema inhibition: 13%
[2]; 100 mg/Kg p.o., 100 mg/kg
  % edema inhibition: 25%
[2]; 200 mg/Kg p.o., 200 mg/kg
  % edema inhibition: 17%
[3]; 50 mg/Kg p.o., 50 mg/kg
  % edema inhibition: 54%
[3]; 100 mg/Kg p.o., 100 mg/kg
  % edema inhibition: 52%
[3]; 200 mg/Kg p.o., 200 mg/kg
  % edema inhibition: 66%
[4]; 50 mg/Kg p.o., 50 mg/kg
  % edema inhibition: 19%
[4]; 100 mg/Kg p.o., 100 mg/kg
  % edema inhibition: 40%
[4]; 200 mg/Kg p.o., 200 mg/kg
  % edema inhibition: 40%
[5]; 50 mg/Kg p.o., 50 mg/kg
  % edema inhibition: 3%
[5]; 100 mg/Kg p.o., 100 mg/kg
  % edema inhibition: 3%
[5]; 200 mg/Kg p.o., 200 mg/kg
  % edema inhibition: 17%
[15]
  Effect on the capillary permeability, .0. m.micron: 8.00 m.micron
[16]
  Effect on the capillary permeability, .0. m.micron: 17.71 m.micron
[17]
  Effect on the capillary permeability, .0. m.micron: 21.57 m.micron
[9]
  % inhibition: 31%
[9]; dose of 50 mg
  anti-inflammatory effect (in words): rather good anti-inflammatory effect
[10]
  % inhibition: 12%
